“Also recorded” adds a separate entry of the source. Like-named read-outs stand apart in the source and are kept apart here.
What was measured:
[1] = Metabolic stability in human liver microsomes; type: in vitro ADME; details: for microsomal CLint / Half-life in human liver microsomes (single determinations): Table 5
Protocol: The prodrugs were incubated with the human liver microsomes at 37° C. as an indication of the susceptibility of prodrugs to undergo bioconversion in the liver. The reactions were initiated by adding 1.5 μL of the prodrug stock solution (10 mg/mL in DMSO) to a preheated solution consisting of 748.5 μL potassium phosphate buffer solution (20 mM, pH 7.4, ionic strength 0.5), 200 μL NADPH, and 50 μLhuman liver microsomes (mixed gender, 0.5 ml at 20 mg/mL). The solutions were stirred at a constant temperature of 37° C. At appropriate intervals, 50 μLof samples were mixed with 100 μL of ice-cold MeOH. After immediate mixing and centrifugation (5 min at 14.000 rpm), the resulting clear supernatant was analyzed for the remaining prodrug by HPLC.

[2] = test system: reconstructed human oral buccal epithelium cells (SkinEthic HOE, TR146 cells); assay: In vitro buccal permeability (SkinEthic human oral epithelium); type: in vitro ADME; details: for Flux (buccal) / Flux compared with parent cannabinoid / Species making up the buccal flux / formation of parent cannabinoid: Table 4; for Flux (buccal): suspension ca. 2 mg/ml in 5% EtOH/phosphate buffer pH 6.8, 37° C., receiver 15% HP-β-cyclodextrin; for Flux compared with parent cannabinoid: buccal flux relative to parent; for Species making up the buccal flux / formation of parent cannabinoid / Species making up the buccal flux (parent vs intact prodrug): remark in flux cell; for Buccal permeation compared with parent cannabinoid (in words): 5% ethanol suspension; for Species making up the buccal flux (parent vs intact prodrug): Table 2
Protocol: The in vitro permeability studies were carried out in commercial reconstructed human oral buccal epithelium cells (SkinEthic™ human oral epithelium). The SkinEthic™ HOE model is composed of TR146 cells (derived from a squamous cell carcinoma of the buccal mucosa) cultivated on an inert polycarbonate filter at the air-liquid interface in a chemically defined medium. This model forms an epithelial tissue devoid of stratum corneum, resembling histologically to the mucosa of the oral cavity.
Upon receiving the cells, each insert (0.5 cm^2 or 0.33 cm^2) was placed in a plate containing 800 μL fresh medium at room temperature. The culture dishes were placed in the incubator at 37° C., 5% CO2, and saturated humidity overnight. Next day, the inserts were placed in a plate containing 800 μL 15% HP-β-cyclodextrin in H2O. The prodrugs were dissolved in 100% EtOH (5% (V/V) final conc.), and then sodium phosphate buffer solution (50 mM, pH 6.8, isotonic, 37° C.) was added (95% (V/V) final conc.). 400 μL of the prodrugs were applied as suspensions (ca. 2 mg/ml). The plates were stirred gently at 37° C. At appropriate intervals, the receptor compartment was sampled (100 μL) and replenished with fresh […] solution each time. The samples were mixed with 100 μL of MeOH, and analyzed for drug (both the parent cannabinoid and the prodrug) by HPLC-MS.
The buccal flux-values for the rate of delivery of drugs were determined from Fick's law of diffusion.

[3] = Stability in 80% human plasma (serum); type: in vitro ADME; details: 80% human serum (pH 7.4) at 37° C.; for half-life: human, serum
Protocol: The rates of the degradation of the prodrugs were determined in 80% human serum (pH 7.4) at 37° C. as an indication of the susceptibility of prodrugs to undergo bioconversion after reaching the circulation. The reactions were initiated by adding the first 10 μL of the prodrug stock solution (10 mg/mL in DMSO) to 200 μL preheated sodium phosphate buffer solution (50 mM, pH 7.4, ionic strength 0.5), and then adding 800 μL preheated human serum. The solutions were stirred at a constant temperature of 37° C. At appropriate intervals, 50 μL of samples were mixed with 150 μL of ice-cold MeOH. After immediate mixing and centrifugation (5 min at 14.000 rpm), the resulting clear supernatant was analyzed for the remaining prodrug by HPLC.

[4] = Stability in aqueous solutions (sodium phosphate buffer, 37° C.); type: physicochemical; details: for half-life: buffer; for Half-life in aqueous solution: Table 5
Protocol: […] The solutions of prodrugs were prepared by adding 10 μL of stock solution (10 mg/mL in DMSO) to the preheated buffer. The solutions were stirred at a constant temperature of 37° C. At appropriate intervals, 75 μL of samples were mixed with 75 μL of MeOH and analyzed for remaining prodrug by HPLC.
The pseudo-first-order rate constants (kobs) and half-lives (t1/2) for the degradation of the prodrugs were determined from the linear slopes of the plots by taking the logarithm of the remaining prodrug over time. Equations: kobs=slope/−2.303 and t1/2=ln2/kobs.

[5] = both sexes, human, microsomes, pH 7.4, Table 5, 37° C., NADPH, read-out: Half-life in human liver microsomes (single determinations) (converted)
[6] = both sexes, human, microsomes, pH 7.4, Table 5, average of determinations, read-out: Half-life in human liver microsomes (avg.) (converted)
[7] = both sexes, human, microsomes, pH 7.4
[8] = pH 6.8, Table 3, aqueous buffer pH 6.8, 37° C., read-out: Half-life in aqueous solution (converted)
[9] = both sexes, human, microsomes, pH 7.4, Table 3, 37° C., NADPH, read-out: Half-life in human liver microsomes (single determinations) (converted)
[10] = aqueous buffer pH 6.8, 37° C., single determinations
[11] = pH 6.8, Table 5, aqueous buffer pH 6.8, 37° C., single determinations, read-out: Half-life in aqueous solution (converted)

## CCCCCc1cc(O)c2c(c1)OC(C)(CCC=C(C)C)C=C2 (stereo not shown) [CBC, Cannabichromene, reference compound]
[1]; [5]
  half-life: 1.93 h
[1]; [6]
  half-life: 1.86 h
[1]; [7]
  microsomal CLint: 6.21 µL/min/mg
[2]
  Flux (buccal): 27.87 ± 2.46 nmol/cm^2/h

## CCCCCc1cc(OC(=O)N2CCN(C)CC2)c2c(c1)OC(C)(CCC=C(C)C)C=C2 (stereo not shown) [CBCp1, 2-methyl-2-(4-methylpent-3-en-1-yl)-7-pentyl-2H-chromen-5-yl4-methylpiperazine-1-carboxylate]
[3]; Table 5
  Half-life in serum: stable for 6 hrs
[1]; 37° C., NADPH
  Half-life in human liver microsomes (single determinations): 3.13 h
[1]; [5]
  half-life at 15 µg/mL: 4.18 h
[1]; [6]
  half-life at 15 µg/mL: 3.65 h
[2]
  Flux compared with parent cannabinoid: No improvement
  Species making up the buccal flux / formation of parent cannabinoid: NO significant formation of CBC
  Flux (buccal): 15.88 ± 0.70 (prodrug) nmol/cm^2/h

## CCCCCc1cc(OC(=O)N2CCNCC2)c2c(c1)OC(C)(CCC=C(C)C)C=C2 (stereo not shown) [CBCp3, 2-methyl-2-(4-methylpent-3-en-1-yl)-7-pentyl-2H-chromen-5-yl piperazine-1-carboxylate]
[3]; Table 5
  Half-life in serum: stable for 6 hrs
[1]; [6]
  half-life at 15 µg/mL: 14.9 h
[2]
  Flux compared with parent cannabinoid: No improvement
  Species making up the buccal flux / formation of parent cannabinoid: NO significant formation of CBC
  Flux (buccal): 5.74 ± 0.51 (prodrug) nmol/cm^2/h

## C=C(C)[C@@H]1CCC(C)=C[C@H]1c1c(O)cc(CCCCC)cc1OC(=O)CN1CCN(C)CC1 [CBDp7, (1′R,2′R)-6-hydroxy-5′-methyl-4-pentyl-2′-(prop-1-en-2-yl)-1′,2′,3′,4′-tetrahydro-[1,1′-biphenyl]-2-yl 2-(4-methylpiperazin-1-yl)acetate]
[3]; pH 7.4, Table 3
  half-life: 2.6 h
[4]; [8]
  half-life: 0.16 h
[1]; [9]
  half-life: 0.12 h
[2]
  Buccal permeation compared with parent cannabinoid (in words): better than that of CBD
  Species making up the buccal flux (parent vs intact prodrug): 1/3 CBD & 2/3

## C=C(C)[C@@H]1CCC(C)=C[C@H]1c1c(OC(=O)N2CCN(C)CC2)cc(CCCCC)cc1OC(=O)N1CCN(C)CC1 [CBDp14, (1′R,2′R)-5′-methyl-4-pentyl-2′-(prop-1-en-2-yl)-1′,2′,3′,4′-tetrahydro-[1,1′-biphenyl]-2,6-diyl bis(4-methylpiperazine-1-carboxylate)]
[3]; Table 3
  Half-life in serum: stable
[4]; Table 3 footnote f, 20% of ethanol in the solution, read-out: Half-life in aqueous solution with ethanol
  half-life: 50 h
[4]; [8]
  half-life: 2.5 h
[1]; [9]
  half-life at 15 µg/mL: 0.86 h
[2]
  Buccal permeation compared with parent cannabinoid (in words): better than that of CBD; also recorded: significantly improved permeability compared to CBD
  Species making up the buccal flux (parent vs intact prodrug): only intact prodrug

## C=C(C)[C@@H]1CCC(C)=C[C@H]1c1c(O)cc(CCCCC)cc1OC(=O)N1CCCCC1 [CBDp17, (1′R,2′R)-6-hydroxy-5′-methyl-4-pentyl-2′-(prop-1-en-2-yl)-1′,2′,3′,4′-tetrahydro-[1,1′-biphenyl]-2-yl piperidine-1-carboxylate]
[2]
  Species making up the buccal flux (parent vs intact prodrug): only intact prodrug

## C=C(C)[C@@H]1CCC(C)=C[C@H]1c1c(OC(=O)N2CCCCC2)cc(CCCCC)cc1OC(=O)N1CCCCC1 [CBDp18, (1′R,2′R)-5′-methyl-4-pentyl-2′-(prop-1-en-2-yl)-1′,2′,3′,4′-tetrahydro-[1,1′-biphenyl]-2,6-diyl bis(piperidine-1-carboxylate)]
[2]
  Species making up the buccal flux (parent vs intact prodrug): only intact prodrug

## C=C(C)[C@@H]1CCC(C)=C[C@H]1c1c(O)cc(CCCCC)cc1OC(=O)N1CCNCC1 [CBDp21, (1′R,2′R)-6-hydroxy-5′-methyl-4-pentyl-2′-(prop-1-en-2-yl)-1′,2′,3′,4′-tetrahydro-[1,1′-biphenyl]-2-yl piperazine-1-carboxylate]
[2]
  Buccal permeation compared with parent cannabinoid (in words): better than that of CBD
  Species making up the buccal flux (parent vs intact prodrug): only intact prodrug

## C=C(C)[C@@H]1CCC(C)=C[C@H]1c1c(OC(=O)C2CCNC2)cc(CCCCC)cc1OC(=O)C1CCNC1 (stereo partly drawn) [CBDp24, (1′R,2′R)-5′-methyl-4-pentyl-2′-(prop-1-en-2-yl)-1′,2′,3′,4′-tetrahydro-[1,1′-biphenyl]-2,6-diyl bis(pyrrolidine-3-carboxylate)]
[4]; Table 3 footnote e
  Stability in standard and aqueous solutions (in words): ^e Could not be determined due to fast degradation in standard and aqueous solutions,
[2]
  Buccal permeation compared with parent cannabinoid (in words): better than that of CBD; also recorded: superior when compared to CBD and other prodrugs
  Species making up the buccal flux (parent vs intact prodrug): mostly intact

## CCCCCc1cc(O)c(C/C=C(\C)CCC=C(C)C)c(O)c1 [CBG, Cannabigerol, reference compound]
[1]; [7]
  microsomal CLint at 15 µg/mL: 7.18 µL/min/mg
[1]; both sexes, human, microsomes, pH 7.4, Half-life in human liver microsomes (avg.)
  half-life at 15 µg/mL: 1.61 h
[1]; both sexes, human, microsomes, pH 7.4, Half-life in human liver microsomes (single determinations)
  half-life at 15 µg/mL: 1.79 h
[1]; human, microsomes
  Kobs (based on microsomes Half-life): 0.43

## CCCCCc1cc(O)c(C/C=C(\C)CCC=C(C)C)c(OC(=O)N2CCN(C)CC2)c1 [CBGp2, (E)-2-(3,7-dimethylocta-2,6-dien-1-yl)-3-hydroxy-5-pentylphenyl 4-methylpiperazine-1-carboxylate]
[3]; Table 5
  Half-life in serum: No degradation
[4]; [10]
  Half-life in aqueous solution: 1.17 h
[4]; [11]
  half-life: 1.14 h
[1]; 37° C., NADPH
  Half-life in human liver microsomes (single determinations): 1.73 h
[1]; [5]
  half-life at 15 µg/mL: 1.62 h
[1]; [6]
  half-life at 15 µg/mL: 1.68 h
[2]
  Flux compared with parent cannabinoid: No improvement
  Species making up the buccal flux / formation of parent cannabinoid: NO significant formation of CBG
  Flux (buccal): 4.45 ± 0.45 (prodrug) nmol/cm^2/h

## CCCCCc1cc(O)c2c(c1)OC(C)(C)[C@@H]1CCC(C)=C[C@@H]21 [THC, Δ9-Tetrahydrocannabinol, reference compound]
[1]; [5]
  half-life: 0.17 h
[1]; [6]
  half-life: 0.18 h
[1]; [7]
  microsomal CLint: 64.2 µL/min/mg
[2]
  Flux (buccal): 19.65 ± 0.36 nmol/cm^2/h

## CCCCCc1cc(OC(=O)C2CCNC2)c2c(c1)OC(C)(C)[C@@H]1CCC(C)=C[C@@H]21 (stereo partly drawn) [THCp2, (6aR,10aR)-6,6,9-trimethyl-3-pentyl-6a,7,8,10a-tetrahydro-6H-benzo[c]chromen-1-yl pyrrolidine-3-carboxylate]
[3]; Table 5
  Half-life in serum: 0.43 h
[3]; pH 7.4, Table 5
  half-life: 0.42 h
[4]; [10]
  Half-life in aqueous solution: 0.46 h
[4]; [11]
  half-life: 0.49 h
[1]; 37° C., NADPH
  Half-life in human liver microsomes (single determinations): 2.79 h
[1]; [5]
  half-life: 2.09 h
[1]; [6]
  half-life: 2.44 h
